pEC50, pKi: −log10 of the molar value.
Experiments:
[1] = biological target: T1, Human Neuropeptide Y2 Receptor (Homo sapiens, UniProt P49146); assay: Radioligand binding competition assay (RLB); settings: for pKi: Table 3, 125I-PYY(1-36) competition, read-out: Ki
T1 construct: purchased CHEMICON HTS066M
T1 sequence (P49146 1-381): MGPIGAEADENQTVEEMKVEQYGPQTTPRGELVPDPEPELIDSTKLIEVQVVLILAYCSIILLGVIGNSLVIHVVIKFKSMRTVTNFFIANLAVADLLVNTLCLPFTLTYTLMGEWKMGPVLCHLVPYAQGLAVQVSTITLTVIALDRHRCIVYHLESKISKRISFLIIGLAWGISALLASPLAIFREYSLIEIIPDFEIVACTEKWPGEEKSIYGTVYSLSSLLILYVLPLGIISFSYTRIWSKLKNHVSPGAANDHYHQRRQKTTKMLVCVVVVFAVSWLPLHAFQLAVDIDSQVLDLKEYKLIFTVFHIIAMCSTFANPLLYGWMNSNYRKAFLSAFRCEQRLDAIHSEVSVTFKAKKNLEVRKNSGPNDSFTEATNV
Summary of the method: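 Receptor membranes, 0.5 μg/well; buffer 50 mM HEPES/5 mM MgCl2/1 mM CaCl2/0.2% ovalbumin, pH 7.4; 2 h RT, shaking. GF/C filtration, cold HEPES/500 mM NaCl wash, scintillation count. IC50 by nonlinear regression.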

[2] = biological target: T2, human NPY5 receptor (hY5R) (Homo sapiens, UniProt Q15761); assay: HTRF cAMP Gi assay, hY5R
T2 sequence (Q15761 1-445): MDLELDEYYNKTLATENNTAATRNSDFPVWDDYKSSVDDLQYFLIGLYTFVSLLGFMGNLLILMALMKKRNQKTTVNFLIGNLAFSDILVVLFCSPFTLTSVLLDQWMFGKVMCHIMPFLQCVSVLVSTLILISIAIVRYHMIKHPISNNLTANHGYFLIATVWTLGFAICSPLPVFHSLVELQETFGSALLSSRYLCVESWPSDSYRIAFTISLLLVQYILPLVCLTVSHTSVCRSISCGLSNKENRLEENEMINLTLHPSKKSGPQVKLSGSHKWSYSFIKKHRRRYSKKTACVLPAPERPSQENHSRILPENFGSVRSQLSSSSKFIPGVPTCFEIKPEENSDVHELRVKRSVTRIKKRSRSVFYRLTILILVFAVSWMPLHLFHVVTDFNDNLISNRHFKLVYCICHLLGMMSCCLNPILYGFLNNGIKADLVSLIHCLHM

Solubility determination = settings: for Sol6: pH 6; for Sol7: pH 7
Summary of the method: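 First, TFA-salt peptide was added to 0.1 M sodium diphosphate (pH 6.4 or 7.0) to 10 mg/ml and shaken 2 h at room temperature. Next, insoluble material was filtered off. Finally, filtrate and control, each 1 mg/ml in 50% acetonitrile, were compared by reversed-phase chromatography.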

[3] = biological target: T3, human NPY1 receptor (hY1R) (Homo sapiens, UniProt P25929); assay: HTRF cAMP Gi assay, hY1R; type: cell-based; settings: CHO-K1 cells
T3 construct: expressed in transfected cells; host or cells: CHO-K1
T3 sequence (P25929 1-384): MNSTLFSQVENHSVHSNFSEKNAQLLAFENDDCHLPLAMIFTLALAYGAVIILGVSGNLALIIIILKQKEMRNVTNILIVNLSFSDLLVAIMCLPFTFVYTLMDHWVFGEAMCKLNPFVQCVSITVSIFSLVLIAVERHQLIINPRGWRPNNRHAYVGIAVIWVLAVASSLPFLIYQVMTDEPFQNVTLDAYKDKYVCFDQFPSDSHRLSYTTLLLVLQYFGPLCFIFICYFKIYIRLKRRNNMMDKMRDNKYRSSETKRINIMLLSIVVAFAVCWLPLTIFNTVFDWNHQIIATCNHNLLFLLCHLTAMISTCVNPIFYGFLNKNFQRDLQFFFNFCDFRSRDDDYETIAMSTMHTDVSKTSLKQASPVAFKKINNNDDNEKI
Description: Briefly, the production of intracellular cAMP will generate a competition between unlabeled cAMP and exogenously added d2-cAMP for anti-cAMP antibodies conjugated to cryptate. CHO-K1 cells stably expressing the human NPY1, NPY2, NPY4 and NPY5 receptors were used with the cells brought to life from a frozen stock immediately before assay performance. 2000 cells per well were applied for all four NPY receptor subtype assays. A 384-well format was used applying a total volume of 20 μl using 5 μl cells, 2.5 μl peptide agonist, 2.5 μl forskolin and 5 μl of each of the fluorophores. […] Concentration-response evaluation of compounds was performed with 11 concentrations of agonist peptides (covering 3 decades). EC50 values were calculated by nonlinear regression using sigmoid concentration-response with variable slope.

[4] = biological target: T1, Human Neuropeptide Y2 Receptor; assay: Activity (RLB binding) after incubation in solutions at different pH values
Description: The filtration RLB assay was carried out in 96-well plates in a final volume of 100 μl per well. Freeze-dried test peptides were dissolved in 100% dimethyl sulfoxide (DMSO) to stock solutions of 1 mM and serial dilutions were performed in assay buffer (50 mM HEPES, 5 mM MgCl2, 1 mM CaCl2, pH 7.4) containing 0.2% ovalbumin. […] Next, 80 μL membranes (HTS066M, ChemiSCREEN™ Human Neuropeptide Y2 Receptor Membrane Preparation, CHEMICON) were added to each well to give a final protein concentration of 0.5 μg/well. The plates were sealed and incubated at room temperature for 2 hours in a plate shaker set at 400 rpm. The incubation was stopped by vacuum filtration onto 0.5% polyethylene amine (PE) presoaked GF/C filters using a 96-well FilterMate™ harvester (Perkin Elmer) followed by four washes with 300 μl/well ice-cold wash buffer (50 mM HEPES, 500 mM NaCl, pH7.4). Filter plates were then dried for 60 min at room temperature and the bottom of the plates was sealed with backing tape UniFilter-96. Finally, 50 μl/well scintillation counter cocktail (Microscint20, Packard) was added and the radioactivity was counted in the Packard TopCount NXT scintillation counter. IC50 values (the half maximal inhibitory concentration of the agonist) were calculated by nonlinear regression analysis of sigmoidal dose-response curves.
The peptide was (partially) dissolved by shaking the filter unit horizontally at approx. 400 rpm for 2 hours at room temperature. The sample was filtered to remove any insoluble particles.

[5] = biological target: T4, human NPY4 receptor (hY4R) (Homo sapiens, UniProt P50391); assay: HTRF cAMP Gi assay, hY4R; type: cell-based; settings: CHO-K1 cells
T4 construct: expressed in transfected cells; host or cells: CHO-K1
T4 sequence (P50391 whole entry): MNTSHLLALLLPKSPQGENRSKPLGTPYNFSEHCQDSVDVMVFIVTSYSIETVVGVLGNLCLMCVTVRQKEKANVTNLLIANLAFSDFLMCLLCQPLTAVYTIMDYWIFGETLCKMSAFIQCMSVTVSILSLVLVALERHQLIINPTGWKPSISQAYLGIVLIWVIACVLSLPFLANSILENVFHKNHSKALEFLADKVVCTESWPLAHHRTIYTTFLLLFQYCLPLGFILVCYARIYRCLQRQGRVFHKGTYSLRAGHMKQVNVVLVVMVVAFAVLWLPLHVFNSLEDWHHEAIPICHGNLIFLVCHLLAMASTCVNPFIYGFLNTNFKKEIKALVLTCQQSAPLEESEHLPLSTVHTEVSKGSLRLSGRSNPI

[6] = biological target: T5, human NPY2 receptor (hY2R) (Homo sapiens, UniProt P49146); assay: HTRF cAMP Gi assay, hY2R
T5 sequence (P49146 1-381): T1 sequence (P49146 1-381)
Description: The Homogenous Time Resolved fluorescence (HTRF) technology optimized for Gi coupled receptors has thoroughly been described in Cisbio cAMP Gi kit manual. Briefly, the production of intracellular cAMP will generate a competition between unlabeled cAMP and exogenously added d2-cAMP for anti-cAMP antibodies conjugated to cryptate. CHO-K1 cells stably expressing the human NPY1, NPY2, NPY4 and NPY5 receptors were used with the cells brought to life from a frozen stock immediately before assay performance. 2000 cells per well were applied for all four NPY receptor subtype assays. A 384-well format was used applying a total volume of 20 μl using 5 μl cells, 2.5 μl peptide agonist, 2.5 μl forskolin and 5 μl of each of the fluorophores. […] Concentration-response evaluation of compounds was performed with 11 concentrations of agonist peptides (covering 3 decades). EC50 values were calculated by nonlinear regression using sigmoid concentration-response with variable slope.

[7] = apparent Ki of filtrate after incubation at pH7.1-7.2, assumed 10 mg/ml, read-out: RLB 7 (pH7.1-7.2)
[8] = apparent Ki of filtrate after incubation at pH8.1-8.2, assumed 10 mg/ml, read-out: RLB 8 (pH8.1-8.2)

pKi [1] | Ki ([1]; Table 8, DMSO stock, read-out: hY2R RLB Ki (nM) DMSO) [nM] | pEC50 [2] | Sol6 (Solubility determination) [mg/mL] | Sol7 (Solubility determination) [mg/mL] | pEC50 [3] | pKi ([4]; apparent Ki of filtrate after incubation at pH6.1-6.2, assumed 10 mg/ml, read-out: RLB 6 (pH6.1-6.2)) | pKi [4, 7] | pKi [4, 8] | pEC50 [5] | pEC50 [6] | Structure (SMILES)
8.83 | 8.7 | < 5.30 | 9.4 | 9.3 | < 5.30 | 8.41 | 8.40 | 8.24 | < 5.30 | – | CC[C@H](C)[C@H](NC(=O)[C@H](CCC(=O)O)NC(=O)[C@H](CCC(=O)O)NC(=O)[C@@H]1CCCN1C(=O)[C@@H](NC(=O)[C@H](C)NC(=O)[C@H](CC(=O)O)NC(=O)[C@H](CCC(=O)O)NC(=O)[C@H](CCC(=O)O)NC(=O)[C@@H]1CCCN1C(=O)[C@H](CCCCNC(=O)CCCCCNC(=O)CC[C@H](NC(=O)CCCCCCCCCCCCCCCCC(=O)O)C(=O)O)NC(=O)[C@H](CCC(=O)O)NC(=O)[C@@H]1CCCN1C(=O)[C@H](C)NC(=O)CC(C)C)[C@@H](C)O)C(=O)N[C@@H](CCC(N)=O)C(=O)N[C@@H](CCCNC(=N)N)C(=O)N[C@@H](Cc1ccc(O)cc1)C(=O)N[C@@H](Cc1ccc(O)cc1)C(=O)N[C@H](C(=O)N[C@@H](CO)C(=O)N[C@@H](CC(C)C)C(=O)N[C@@H](CCCNC(=N)N)C(=O)N[C@@H](Cc1c[nH]cn1)C(=O)N[C@@H](Cc1ccc(O)cc1)C(=O)N[C@@H](Cc1ccc(O)cc1)C(=O)N[C@@H](CC(N)=O)C(=O)N[C@@H](Cc1c[nH]c2ccccc12)C(=O)N[C@@H](CC(C)C)C(=O)N[C@H](C(=O)N[C@@H](CCCNC(=N)N)C(=O)N[C@@H](CCC(N)=O)C(=O)N[C@@H](CCCNC(=N)N)C(=O)N[C@@H](Cc1ccc(O)cc1)C(N)=O)[C@@H](C)O)C(C)C [Compound 176, N{alpha-4}-(3-methylbutanoyl)-N{epsilon-7}-(6-[(4S)-4-carboxy-4-(17-carboxyheptadecanamido)butanamido]hexanoyl)-[4A,7K,9E,13T,17I,18Q,22V,28Y,30W,31L]-hPYY(4-36)]
9.17 | – | < 5.30 | 8.9 | 9.2 | < 5.30 | – | – | 8.31 | < 5.30 | 9.89 | CC(C)CC(=O)N[C@@H](C)C(=O)N1CCC[C@H]1C(=O)N[C@@H](CCC(=O)O)C(=O)N[C@@H](CCCCNC(=O)CCCCCNC(=O)CC[C@H](NC(=O)CCCCCCCCCCCCCCCCC(=O)O)C(=O)O)C(=O)N1CCC[C@H]1C(=O)N[C@@H](CCC(=O)O)C(=O)N[C@@H](C)C(=O)N[C@@H](CC(=O)O)C(=O)N[C@@H](C)C(=O)N[C@@H](CO)C(=O)N1CCC[C@H]1C(=O)N[C@@H](CCC(=O)O)C(=O)N[C@@H](CCC(=O)O)C(=O)N[C@@H](CC(C)C)C(=O)N[C@@H](CCC(N)=O)C(=O)N[C@@H](CCCNC(=N)N)C(=O)N[C@@H](Cc1ccc(O)cc1)C(=O)N[C@@H](Cc1ccc(O)cc1)C(=O)N[C@H](C(=O)N[C@@H](C)C(=O)N[C@@H](CC(C)C)C(=O)N[C@@H](CCCNC(=N)N)C(=O)N[C@@H](Cc1c[nH]cn1)C(=O)N[C@@H](Cc1ccc(O)cc1)C(=O)N[C@@H](Cc1ccc(O)cc1)C(=O)N[C@@H](CC(N)=O)C(=O)N[C@@H](Cc1c[nH]c2ccccc12)C(=O)N[C@@H](CC(C)C)C(=O)N[C@H](C(=O)N[C@@H](CCCNC(=N)N)C(=O)N[C@@H](CCC(N)=O)C(=O)N[C@@H](CCCNC(=N)N)C(=O)N[C@@H](Cc1ccc(O)cc1)C(N)=O)[C@@H](C)O)C(C)C [Compound 163, N{alpha-4}-(3-methylbutanoyl)-N{epsilon-7}-(6-[(4S)-4-carboxy-4-(17-carboxyheptadecanamido)butanamido]hexanoyl)-[4A,7K,9E,10A,18Q,22V,23A,28Y,30W,31L]-hPYY(4-36)]
– | – | < 5.30 | 8.5 | 8.2 | < 5.30 | – | 8.14 | 8.42 | < 5.30 | – | CC[C@H](C)[C@H](NC(=O)[C@H](Cc1ccc(O)cc1)NC(=O)[C@H](Cc1ccc(O)cc1)NC(=O)[C@H](CCCNC(=N)N)NC(=O)[C@H](CCC(N)=O)NC(=O)[C@@H](NC(=O)[C@H](CCC(=O)O)NC(=O)[C@H](CCC(=O)O)NC(=O)[C@@H]1CCCN1C(=O)[C@H](CO)NC(=O)[C@H](C)NC(=O)[C@H](CC(=O)O)NC(=O)[C@H](C)NC(=O)[C@H](CCC(=O)O)NC(=O)[C@@H]1CCCN1C(=O)[C@H](CCCCNC(=O)CCCCCNC(=O)CC[C@H](NC(=O)CCCCCCCCCCCCCCCCC(=O)O)C(=O)O)NC(=O)[C@H](CCC(=O)O)NC(=O)[C@@H]1CCCN1C(=O)[C@H](C)NC(=O)CC(C)C)[C@@H](C)CC)C(=O)N[C@@H](C)C(=O)N[C@@H](CC(C)C)C(=O)N[C@@H](CCCNC(=N)N)C(=O)N[C@@H](Cc1c[nH]cn1)C(=O)N[C@@H](Cc1ccc(O)cc1)C(=O)N[C@@H](Cc1ccc(O)cc1)C(=O)N[C@@H](CC(N)=O)C(=O)N[C@@H](Cc1c[nH]c2ccccc12)C(=O)N[C@@H](CC(C)C)C(=O)N[C@H](C(=O)N[C@@H](CCCNC(=N)N)C(=O)N[C@@H](CCC(N)=O)C(=O)N[C@@H](CCCNC(=N)N)C(=O)N[C@@H](Cc1ccc(O)cc1)C(N)=O)[C@@H](C)O [Compound 40, N{alpha-4}-(3-methylbutanoyl)-N{epsilon-7}-(6-[(4S)-4-carboxy-4-(17-carboxyheptadecanamido)butanamido]hexanoyl)[4A,7K,9E,10A,17I,18Q,22I,23A,28Y,30W,31L]-hPYY(4-36)]
